Earlier results on three compounds are cited in US5411479A, “Cancer treatment and catheter for use in treatment” (priority 1993, dated 1995).

The conditions of series [1]: for Local hepatobiliary toxicities (hepatitis, cholecystitis, biliary sclerosis, stenosis and stricture): conventional HAI; for Systemic toxicity of HAI chemotherapy: conventional doses; for Hepatitis (nausea, vomiting, abdominal pain, jaundice, elevated liver transaminases and bilirubin): in vivo.
Series [2] relates to hepatocellular tumor. The conditions noted are these: for activity in hepatocellular tumor: systemic chemotherapy, Phase II trials.
For series [3], the system named is colon cancer metastatic to the liver. The conditions noted are these: for effectiveness of arterial infusion: drug delivered directly to liver tumor cells.

As to `O=c1[nH]cc(F)c(=O)[nH]1` [5-FU, 5-fluorouracil], in series [1], the “Local hepatobiliary toxicities (hepatitis, cholecystitis, biliary sclerosis, stenosis and stricture)” value is “up to 50 % of the patients”; the “Systemic toxicity of HAI chemotherapy” value is listed as “has not been a major problem”; the “Hepatitis (nausea, vomiting, abdominal pain, jaundice, elevated liver transaminases and bilirubin)” value is listed as “has occurred”. Also, the “activity in hepatocellular tumor” value in series [2] was “significant activity”. Moreover, the “effectiveness of arterial infusion” value in series [3] was “increases their effectiveness”. Moreover, the dose-response effect entry in series [3] (in vivo) is given as “displays a dose-response effect”.
For the compound `COc1cccc2c1C(=O)c1c(O)c3c(c(O)c1C2=O)C[C@@](O)(C(=O)CO)C[C@@H]3O[C@H]1C[C@H](N)[C@H](O)[C@H](C)O1` [doxorubicin], in series [2] (doxorubicin 60 mg/m^2 every 3 weeks), the objective therapeutic responses result is listed as “approximately 20 % of the patients”. Further, the toxicity result in series [2] (doxorubicin 75 mg/m^2 every 3 weeks) is “Substantial toxicity”. In series [2] (doxorubicin 75 mg/m^2 every 3 weeks, East African blacks, of 50 patients treated), the objective response was 22 patients. Further, the complete response in series [2] (doxorubicin 75 mg/m^2 every 3 weeks, among 22 objective responses, 50 patients treated) was 3 patients. For the same compound, the “activity in hepatocellular tumor” value in series [2] is “significant activity”.
As for `O=c1[nH]c(=O)n([C@H]2C[C@H](O)[C@@H](CO)O2)cc1F` [FUDR, floxuridine], in series [1], the “Local hepatobiliary toxicities (hepatitis, cholecystitis, biliary sclerosis, stenosis and stricture)” value is given as “up to 50 % of the patients”; the “Systemic toxicity of HAI chemotherapy” value is listed as “has not been a major problem”; the “Hepatitis (nausea, vomiting, abdominal pain, jaundice, elevated liver transaminases and bilirubin)” value is recorded as “has occurred”. For the same compound, the “effectiveness of arterial infusion” value in series [3] is “increases their effectiveness”.
